Source: patent US20110275714A1, “Use Of Cationic Surfactants As Acaricidal Agents” (priority 2009, published 2011)
“Also recorded” adds a separate entry of the source.

Assays:
[1] = system: Leuconostoc mesenteroides CETC 912; conditions: Gram + Bacteria; cited from earlier work
[2] = system: Clostridium perfringens ATCC 77454; conditions: Gram + Bacteria; cited from earlier work
[3] = system: Pseudomonas aeruginosa ATCC 9027; conditions: Gram − Bacteria; cited from earlier work
[4] = system: Serratia marcenses CECT 274; conditions: Gram − Bacteria; cited from earlier work
[5] = system: Escherichia coli 0157H7; conditions: Gram − Bacteria; cited from earlier work
[6] = system: Chaetonium globosum ATCC 6205; conditions: Fungi; cited from earlier work
[7] = system: Mold mite Tyrophagus putrescentiae; experiment: Mold mite survivorship in diet with Mirenat-G (LAE in glycerin), four weeks (Example 3); type: in vivo; conditions: for Mold mites number: four weeks after infestation with 25 individuals, n = 15, means ± SEM
Method: This example determines the effect of three different concentrations of LAE on the mortality, reproduction and immature development of mold mite Tyrophagus putrescentiae. The dose level tested were 0.125%, 0.25% and 0.5% of LAE.
Mixed developmental stages of the Mold mite, Tyrophagus putrescentiae, were used in the experiments. The individuals of this specie came from IRTA, Crop Protection Department and had been maintained on standard diets at 25±1° C., 70±10% r.h. and a photoperiod of 16:8 L:D. Experiments were conducted in a climatic chamber at the same environmental conditions.
The food additive Mirenat-G (10.5% LAE in glycerin) was supplied by the company VEDEQSA and was uniformly mixed with a mix of bran, brewer's yeast for the Mold mite. It was tested at the following dosages of 0.125%, 0.25% and 0.5% LAE. A control treatment with no food additive was included for reference. Fifteen replications per treatment were prepared.
For the mold mite, the experimental arenas were ventilated plastic cages (100 ml) containing 15 g of a mixed diet (bran, brewer's yeast and glycerin). Mites were added to arenas in numbers of 25 individuals. Plastic cages were isolated in hermetic boxes containing a solution of glycerine in order to maintain the relative humidity at 75%.
Four weeks after T. putrescentiae infestation the total number of individuals present in each replication was counted.
The mean number of individuals were compared between treatments with or without the additive for the pest specie using a one-way analysis of variance (ANOVA) procedure and means were separated by Tukey test (PROC GLM; SAS Institute 2000).

[8] = system: Mold mite Tyrophagus putrescentiae; experiment: Mold mite survivorship in rearing diet with LAE, six weeks (Example 2); type: in vivo; conditions: 1% LAE in diet
Method: This example determines the effect of LAE on the mortality, reproduction and immature development of Mold mite Tyrophagus putrescentiae.
Mixed developmental stages of the Mold mite, Tyrophagus putrescentiae, were used in the experiments. The individuals of the species came from IRTA, Crop Protection Department and had been maintained on standard diets at 25±1° C., 70±10% r.h. and a photoperiod of 16:8 L:D. Experiments were conducted in a climatic chamber at the same environmental conditions.
The food additive (LAE) was supplied by the company VEDEQSA as a fine sifted dust, and was uniformly mixed with a mix of bran, brewer's yeast and glycerin for the Mold mite. A high dosage of 1% LAE was tested. A control treatment with no food additive was included for reference. Fifteen replications per treatment were prepared.
For the mold mite, the experimental arenas were ventilated plastic cages (100 ml) containing 15 g of a mixed diet (bran, brewer's yeast and giycerine). Mites were added to arenas in numbers of 25 individuals. Plastic cages were isolated in hermetic boxes containing a solution of glycerine in order to maintain the relative humidity at 75%.
Six weeks after T. putrescentiae infestation the total number of individuals present in each replication was counted. […]

[9] = system: Enterobacter aerogenes CECT 689; conditions: Gram − Bacteria; cited from earlier work
[10] = system: Listeria monocytogenes ATCC 7644; conditions: Gram + Bacteria; cited from earlier work
[11] = system: Escherichia coli ATCC 8739; conditions: Gram − Bacteria; cited from earlier work
[12] = system: Bordetella bronchiseptica ATCC 4617; conditions: Gram − Bacteria; cited from earlier work
[13] = system: Penicillium chrysogenum CECT 2802; conditions: Fungi; cited from earlier work
[14] = system: Candida albicans ATCC 10231; conditions: Yeast; cited from earlier work
[15] = system: Klebsiella pneumoniae var pneumoniae CECT 178; conditions: Gram − Bacteria; cited from earlier work
[16] = system: Aureobasidium pullulans ATCC 9348; conditions: Fungi; cited from earlier work
[17] = system: Bacillus subtilis ATCC 6633; conditions: Gram + Bacteria; cited from earlier work
[18] = system: Micrococcus luteus ATCC 9631; conditions: Gram + Bacteria; cited from earlier work
[19] = system: Arthrobacter oxydans ATCC 8010; conditions: Gram + Bacteria; cited from earlier work
[20] = system: Mycobacterium phlei ATCC 41423; conditions: listed under Gram − Bacteria; cited from earlier work
[21] = system: Penicillium funiculosum CECT 2914; conditions: Fungi; cited from earlier work
[22] = system: Gliocadium virens ATCC 4645; conditions: Fungi; cited from earlier work
[23] = system: Citrobacter freundii ATCC 22636; conditions: Gram − Bacteria; cited from earlier work
[24] = system: Staphylococcus aureus ATCC 6538; conditions: Gram + Bacteria; cited from earlier work
[25] = system: Alcaligenes faecalis ATCC 8750; conditions: Gram − Bacteria; cited from earlier work
[26] = system: Salmonella typhimurium ATCC16028; conditions: Gram − Bacteria; cited from earlier work
[27] = animals and humans; cited from earlier work
[28] = system: Aspergillus niger ATCC14604; conditions: Fungi; cited from earlier work
[29] = system: Bacillus cereus var mycoide ATCC 11778; conditions: Gram + Bacteria; cited from earlier work
[30] = system: Rhodotorula rubra CECT 1158; conditions: Yeast; cited from earlier work
[31] = system: Hyalomma marginatum rufipes; experiment: Mortality of adult ticks in vials with LAE in a food carrier (Example 1); conditions: 24 h contact
Method: This example determines the activity of LAE against a type of tick, Hyalomma marginatum rufipes.
During 3 weeks adult ticks of Hyalomma marginatum rufipes were unfed. 15 unsexed ticks were introduced in each vial of treatment. All vials were closed with a mesh and plastic bands in order to avoid that ticks could escape from the vials. The mortality of ticks was studied 24 h later and compared from the different treatments performed.
Two types of treatment were performed and then compared with the control. One treatment consisted in a dispersion of 0.2% LAE in a food carrier. The other treatment was 1.0% LAE in a food carrier. The control was a vial that contained the ticks without LAE. For each treatment and control samples 5 replicates were carried out.
After 24 hours of contact of ticks with LAE in the vials, the percentage of mortality of ticks was determined (Table 2).

[32] = system: Lactobacillus delbrueckii ssp lactis CECT 372; conditions: Gram + Bacteria; cited from earlier work
[33] = system: Proteus mirabilis CECT 170; conditions: Gram − Bacteria; cited from earlier work
[34] = rats; cited from earlier work
[35] = system: Saccharomyces cerevisiae ATCC 9763; conditions: Yeast; cited from earlier work
[36] = system: mite colonies; experiment: Mite colonies on cured ham treated with LAE on the surface (Example 4); type: in vivo
Method: A dose level of 200 ppm of LAE (or 0.02% of LAE) was added onto the surface of a ham at the beginning of its curing process. The results were compared with a control sample that consisted on a cured ham without being treated with LAE. All hams (control and treated with LAE) were cured during a period of 6 months.
After 6 months, when the curing process was finished it was observed that 85% of ham not treated with LAE (control samples) had mite colonies alive onto the surfaces of hams. In contrast, only 30% of hams treated with LAE had mite colonies alive onto their surface.
Before delivering the hams to the client, the producer extracted the bone in order to slice the ham. It was observed that 25% of ham non-treated with LAE (control) contained mite colonies alive inside the ham. The presence of mite colonies produced the formation of holes between 2 to 3 cm of diameter. These holes in the ham looked like a putrefacted ham.

In the case of `CCCCCCCCCCCC(=O)N[C@@H](CCCN=C(N)N)C(=O)OCC.Cl` [LAE, ethyl ester of the lauramide of the arginine monohydrochloride], the M.I.C. [1] is given as 32 ppm, the M.I.C. [2] is given as 16 ppm and the M.I.C. [3] is given as 64 ppm. For the same molecule, the M.I.C. [4] was 32 ppm, the M.I.C. [5] was 20 ppm and the M.I.C. [6] was 16 ppm. It also gave a Mold mites number ([7]; 0.125% LAE (as Mirenat-G) in diet) of 20.9 ± 9.77, a Mold mites number ([7]; 0.25% LAE (as Mirenat-G) in diet) of 13.17 ± 3.70 and a Mold mites number ([7]; 0.5% LAE (as Mirenat-G) in diet) of 6.7 ± 1.49. For the same molecule, the “reduction in the mean number of individuals present” value ([7]; 0.5% of LAE, after 4-week infestation) was 70%, the Mold mites number ([8]; six weeks after infestation with 25 individuals, n = 15, mean ± SEM) was 0.1 ± 0.1^ and the “survivorship of the Mold mite in the standard rearing diet” value ([8]; six weeks after infestation, monohydrochloride) was “did not survive; also recorded: very low”. The M.I.C. [9] was 32 ppm, the M.I.C. [10] was 10 ppm and the M.I.C. [11] was 32 ppm. The M.I.C. [12] was 128 ppm, the M.I.C. [13] was 128 ppm and the M.I.C. [14] was 16 ppm. For the same molecule, the M.I.C. [15] was 32 ppm, the M.I.C. [16] was 16 ppm and the M.I.C. [17] was 16 ppm. For the same molecule, the M.I.C. [18] was 128 ppm, the M.I.C. [19] was 64 ppm and the M.I.C. [20] was 2 ppm. For the same molecule, the M.I.C. [21] was 16 ppm, the M.I.C. [22] was 32 ppm and the M.I.C. [23] was 64 ppm. The M.I.C. [24] was 32 ppm, the M.I.C. [25] was 64 ppm and the M.I.C. [26] was 32 ppm. The toxicological studies [27] was “completely harmless to animals and humans”, the M.I.C. [28] was 32 ppm and the M.I.C. [29] was 32 ppm. The M.I.C. [30] was 16 ppm, the Mortality ([31]; 0.2% LAE in a food carrier, n = 5) was 6.7% and the Mortality ([31]; 1.0% LAE in a food carrier, n = 5, monohydrochloride) was 38.7%. For the same molecule, the M.I.C. [32] was 16 ppm, the M.I.C. [33] was 32 ppm and the absorption and metabolisation [34] was “fast absorption and metabolisation into naturally-occurring amino acids and the fatty acid lauric acid”. For the same molecule, the M.I.C. [35] was 32 ppm, the “hams with mite colonies alive onto their surface” value ([36]; 200 ppm (0.02%) LAE on ham surface at start of curing, after 6 months curing) was 30% and the “mite colonies alive inside the ham” value ([36]; 200 ppm (0.02%) LAE on ham surface, sliced ham after 6 months curing) was “no presence of mite colonies alive inside the ham”.
